# Values quoted from earlier work as cited in patent US7799540B2, “Method of producing lycopene through the fermentation of selected strains of Blackeslea trispora, formulations and uses of the lycopene thus obtained” (Vitatene, S.A., priority 2001, dated 2010).
# Conditions: rats; Matos H.R. et al. (2001)
smiles,measurement,value
"CC(C)=CCC/C(C)=C/C=C/C(C)=C/C=C/C(C)=C/C=C/C=C(C)/C=C/C=C(C)/C=C/C=C(\C)CCC=C(C)C [lycopene, Lycopene]",effect on harmful effect of ferric nitriloacetate on DNA,inhibits the harmful effect of ferric nitriloacetate on DNA
same,effect on necrosis of the liver,prevents necrosis of the liver
